Values after ≈ are worked out from the molar mass of the structure shown. Like-named read-outs stand apart in the source and are kept apart here.
What was measured:
[1] = tested on: MRSA-2 (methicillin-resistant Staphylococcus aureus clinical isolate); assay: MIC assay (broth microdilution, CLSI); assay type: cell-based; conditions: for MIC: read-out: MIC, MRSA-2
[2] = tested on: Staphylococcus epidermidis (ATCC 12228); assay: MIC assay (broth microdilution, CLSI); assay type: cell-based; conditions: Staphylococcus epidermidis
[3] = tested on: Staphylococcus epidermidis (ATCC 35984), MRSE; assay: MIC assay (broth microdilution, CLSI); assay type: cell-based; conditions: Staphylococcus epidermidis
[4] = tested on: Enterococcus faecium (ATCC 700221), VRE; assay: MIC assay (broth microdilution, CLSI); assay type: cell-based
in vitro = assay type: cell-based; conditions: human
Protocol: (§1) The cytotoxicities of select compounds of the invention against HeLa cells were determined. HeLa cytotoxicity was assessed using the LDH release assay described by CYTOTOX96 (Promega G1780). HeLa cells were grown in Dulbecco's Modified Eagle Medium (DMEM; Gibco) supplemented with 10% Fetal Bovine Serum (FBS) at 37° C. with 5% CO2. […] Triton X-100 (at 2% v/v) was used as the positive control for maximum lactate dehydrogenate (LDH) activity in this assay (e.g., complete cell death), while “medium only” lanes served as negative control lanes (e.g., no cell death). DMSO was used as the vehicle control. […] Finally, Stop Solution (50 μL) was added to the incubating plates, and the absorbance was measured at 490 nm.
(§2) HeLa cytotoxicity was assessed using the LDH release assay described by CYTOTOX96 (Promega G1780). HeLa cells were grown in Dulbecco's Modified Eagle Medium (DMEM; Gibco) supplemented with 10% Fetal Bovine Serum (FBS) at 37° C. with 5% CO2. […] Triton X-100 (at 2% v/v) was used as the positive control for maximum lactate dehydrogenate (LDH) activity in this assay (e.g., complete cell death), while “medium only” lanes served as negative control lanes (e.g., no cell death). DMSO was used as our vehicle control. […] Finally, Stop Solution (50 μL) was added to the incubating plates and the absorbance was measured at 490 nm. Results are from three independent experiments (FIG. 19)

HeLa cells = assay: in vitro; assay type: cell-based; conditions: human, 24 h
Protocol: as §1, §2

human red blood cells = assay: Hemolysis assay with red blood cells; conditions: 200 μM
Method in brief: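 Washed human red blood cells exposed to compounds added from DMSO stocks, 1 h at 37° C.; supernatant OD read at 405 nm after centrifugation. % hemolysis calculated relative to DMSO (0%) and Triton X (100%) controls, from three independent experiments.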

[5] = tested on: MRSA-2 planktonic cells and biofilms; assay: Calgary Biofilm Device (CBD) assay, MBC/MBEC; assay type: cell-based, Staphylococcus aureus; conditions: for MBC: Staphylococcus aureus, MRSA
[6] = tested on: MRSE (S. epidermidis ATCC 35984) planktonic cells and biofilms; assay: Calgary Biofilm Device (CBD) assay, MBC/MBEC; assay type: cell-based, Staphylococcus epidermidis; conditions: Staphylococcus epidermidis; Table 8; read-out: MRSE 35984 MBC
[7] = tested on: VRE (E. faecium ATCC 700221) planktonic cells and biofilms; assay: Calgary Biofilm Device (CBD) assay, MBC/MBEC; assay type: cell-based, Enterococcus faecium; conditions: Enterococcus; Table 8; c lowest concentration tested; read-out: VRE 700221 MBC
[8] = tested on: methicillin-resistant S. aureus (MRSA) strains; assay: MIC assay, values summarised over MRSA strains; assay type: cell-based, Staphylococcus aureus
MRSA BAA-44 = assay: MIC assay (broth microdilution, CLSI); conditions: Staphylococcus aureus, read-out: MIC, MRSA BAA-44
A. baumannii 19606 = assay: MIC assay (broth microdilution, CLSI); assay type: cell-based, Acinetobacter baumannii
P. aeruginosa (PAO1) = assay: MIC assay (broth microdilution, CLSI); assay type: cell-based
K. pneumoniae 13883 = assay: MIC assay (broth microdilution, CLSI); assay type: cell-based, Klebsiella pneumoniae
E. coli UAEC-1 = assay: MIC assay (broth microdilution, CLSI); assay type: cell-based
MRSA-2 = assay: MIC assay with Tiron or metal(II) cation co-treatment; assay type: cell-based, Staphylococcus aureus; conditions: for MIC: Staphylococcus aureus
S. epidermidis 12228 = assay: as above; assay type: cell-based, Staphylococcus epidermidis; conditions: for MIC: Staphylococcus epidermidis
E. faecium 700221 (VRE) = assay: as above; assay type: cell-based, Enterococcus faecium; conditions: for MIC: Enterococcus faecium, VRE
MRSA BAA-1707 = assay: MIC assay (broth microdilution, CLSI); conditions: Staphylococcus aureus, read-out: MIC, MRSA BAA-1707
[9] = tested on: MRSA-1 (methicillin-resistant Staphylococcus aureus clinical isolate); assay: MIC assay (broth microdilution, CLSI); assay type: cell-based; conditions: read-out: MIC, MRSA-1
[10] = tested on: M. tuberculosis H37Ra (ATCC 25177); assay: Mycobacterium tuberculosis MIC assay; assay type: cell-based; conditions: Table 7, read-out: MIC, M. tuberculosis H37Ra
Protocol: The culture was then diluted with fresh medium until an OD600 of 0.01 was reached. […] The final DMSO concentration was maintained at 0.5%. […] Three rows were reserved for each compound. […] OD600 absorbance was recorded using SPECTRAMAX M5 (Molecular Devices). Data obtained from three independent experiments were analyzed using Excel.
The culture was then diluted with fresh medium until an OD600 of 0.01 was reached. […] The final DMSO concentration was maintained at 0.5%. […] Three rows were reserved for each compound. […] OD600 absorbance was recorded using SPECTRAMAX M5 (Molecular Devices). Data obtained from three independent experiments were analyzed using EXCEL.

[11] = Staphylococcus aureus, MRSA, Table 7, a midpoint of 2-fold range, b lowest concentration tested
[12] = ATCC12228, Table 2A, read-out: MIC, Staphylococcus epidermidis (ATCC 12228)
[13] = ATCC12228, Table 7, b lowest concentration tested, read-out: MIC, S. epidermidis 12228
[14] = Table 7, read-out: MIC, MRSE 35984
[15] = Enterococcus faecium, Table 2A, read-out: MIC, Enterococcus faecium (ATCC 700221)
[16] = Table 7, b lowest concentration tested, read-out: MIC, VRE 700221
[17] = Table 8, a/b 2-/4-fold range in independent experiments, read-out: MRSA-2 MBC
[18] = Acinetobacter baumannii, 19606; read-out: A. baumannii 19606 MIC
[19] = Pseudomonas aeruginosa, PAO1; read-out: PAO1 MIC
[20] = Klebsiella pneumoniae, 13883; read-out: K. pneumoniae 13883 MIC
[21] = Escherichia coli, UAEC1; read-out: E. coli UAEC-1 MIC
[22] = MRSA-2, + loss, − increase of activity
[23] = S. epidermidis 12228, + loss, − increase of activity
[24] = E. faecium 700221, + loss, − increase of activity

## Oc1c(Br)cc(Cl)c2nc3ccccc3nc12 [Compound 7, 2-Bromo-4-chloro-1-hydroxyphenazine]
[1]; Staphylococcus aureus, MRSA, Table 2A
  MIC: 1.56 µM (≈ 0.483 µg/mL)
[1]; [11]
  MIC: 1.56 µM (≈ 0.483 µg/mL)
[2]; [12]
  MIC: 1.56 to 3.13 µM (≈ 0.483 to 0.969 µg/mL)
[2]; [13]
  MIC: 2.35 µM (≈ 0.727 µg/mL)
[3]; Table 2A, read-out: MIC, Staphylococcus epidermidis (ATCC 35984)
  MIC: 1.56 µM (≈ 0.483 µg/mL)
[3]; [14]
  MIC: 1.56 µM (≈ 0.483 µg/mL)
[4]; [15]
  MIC: 6.25 µM (≈ 1.93 µg/mL)
[4]; [16]
  MIC: 6.25 µM (≈ 1.93 µg/mL)
In vitro
  IC50 at 24 h: > 100 µM
HeLa cells
  IC50: > 100 µM
Human red blood cells; human, 1 h, pH 7.2
  % Hemolysis (200 μM): ≤1%
  % Hemolysis at 200 μM: ≤1%
[5]; Table 4, read-out: MBC, MRSA-2
  MBC: 46.9 µM (≈ 14.5 µg/mL)
[5]; [17]
  MBC: 46.9 µM (≈ 14.5 µg/mL)
[6]
  MBC: 11.7 µM (≈ 3.62 µg/mL)
[7]
  MBC: 7.8 µM (≈ 2.41 µg/mL)
[8]
  growth inhibition activity against at least one MRSA strain: sub-micromolar
other
  melting point: 212 to 214 °C
MRSA BAA-44
  MIC: 1.56 µM (≈ 0.483 µg/mL)

## Oc1ccc(Br)c2nc3cc(Br)c(Br)cc3nc12 [Compound 13]
[1]; [11]
  MIC: 1.56 µM (≈ 0.675 µg/mL)
[2]; [13]
  MIC: 2.35 µM (≈ 1.02 µg/mL)
[3]; [14]
  MIC: 3.13 µM (≈ 1.35 µg/mL)
[4]; [16]
  MIC: 6.25 µM (≈ 2.71 µg/mL)
Human red blood cells; human, 1 h, pH 7.2
  % Hemolysis at 200 μM: ≤1%
[5]; [17]
  MBC: > 200 µM
[6]
  MBC: > 200 µM
[7]
  MBC: > 200 µM
A. baumannii 19606; [18]
  MIC: > 100 µM
P. aeruginosa (PAO1); [19]
  MIC: > 100 µM
K. pneumoniae 13883; [20]
  MIC: > 100 µM
E. coli UAEC-1; [21]
  MIC: > 100 µM
MRSA-2; [22]
  Fold Δ (Cu^2+): +8
  Fold Δ (Fe^2+): +2
  Fold Δ (Tiron): −125
MRSA-2; MRSA-2, 200 μM copper(II), read-out: MIC with Cu^2+
  MIC: > 100 µM
MRSA-2; MRSA-2, 200 μM iron(II), read-out: MIC with Fe^2+
  MIC: 25 µM
MRSA-2; MRSA-2, 1 mM Tiron, read-out: MIC with Tiron
  MIC: 0.1 µM
MRSA-2; MRSA-2, no additive (Table 9), read-out: MIC
  MIC: 12.5 µM
S. epidermidis 12228; [23]
  Fold Δ (Cu^2+): +500
  Fold Δ (Tiron): n.a. (insignificant changes in MIC values (≤2-fold changes))
S. epidermidis 12228; S. epidermidis 12228, 200 μM CuSO4, read-out: MIC with Cu^2+
  MIC: 50 µM
S. epidermidis 12228; S. epidermidis 12228, 1 mM Tiron, read-out: MIC with Tiron
  MIC: 0.1 µM
S. epidermidis 12228; S. epidermidis 12228, no additive, read-out: MIC
  MIC: 0.1 µM
E. faecium 700221 (VRE); [24]
  Fold Δ (Cu^2+): +64
  Fold Δ (Tiron): n.a. (insignificant changes in MIC values (≤2-fold changes))
E. faecium 700221 (VRE); E. faecium 700221, 200 μM CuSO4, read-out: MIC with Cu^2+
  MIC: 25 µM
E. faecium 700221 (VRE); E. faecium 700221, 1 mM Tiron, read-out: MIC with Tiron
  MIC: 0.39 µM
E. faecium 700221 (VRE); E. faecium 700221, no additive, read-out: MIC
  MIC: 0.39 µM
MRSA BAA-1707
  MIC: 0.56 µM (≈ 0.242 µg/mL)
MRSA BAA-44
  MIC: 1.56 µM (≈ 0.675 µg/mL)

## Oc1c(Br)cc(Br)c2nc3cc4ccccc4cc3nc12 [Compound 19]
[1]; Staphylococcus aureus, MRSA
  MIC: > 100 µM
[1]; Table 2B, a midpoint of 2-fold range, * partial growth inhibition at highest concentration
  MIC, MRSA-2: >100* μM
[1]; Table 7, a midpoint of 2-fold range, b lowest concentration tested
  MIC: >100 µM
[9]; Staphylococcus aureus, MRSA
  MIC: 12.5 µM (≈ 5.05 µg/mL)
[9]; Table 2B, b lowest concentration tested
  MIC: 12.5 µM (≈ 5.05 µg/mL)
[2]; ATCC12228, read-out: MIC, S. epidermidis 12228
  MIC: 12.5 µM (≈ 5.05 µg/mL)
[2]; ATCC12228, read-out: MIC, Staphylococcus epidermidis (ATCC 12228)
  MIC: 12.5 µM (≈ 5.05 µg/mL)
Human red blood cells; 1 h, 37 °C
  % Hemolysis (200 μM): ≤1%
Human red blood cells; red blood cells
  % Hemolysis at 200 μM: <1%
Human red blood cells; Table 8, human red blood cells
  % Hemolysis at 200 μM: ≤1%
[5]; read-out: MBC, MRSA-2
  MBC: 200 µM (≈ 80.8 µg/mL)
[5]; read-out: MRSA-2 MBC
  MBC: 200 µM (≈ 80.8 µg/mL)
[5]; Table 8, a/b 2-/4-fold range in independent experiments
  MRSA-2 MBC: 200/>200 μM
A. baumannii 19606; Acinetobacter baumannii, 19606, read-out: A. baumannii 19606 MIC
  MIC: > 100 µM
P. aeruginosa (PAO1); Pseudomonas aeruginosa, PAO1, read-out: PAO1 MIC
  MIC: > 100 µM
K. pneumoniae 13883; Klebsiella pneumoniae, 13883, read-out: K. pneumoniae 13883 MIC
  MIC: > 100 µM
E. coli UAEC-1; Escherichia coli, UAEC1, read-out: E. coli UAEC-1 MIC
  MIC: > 100 µM
MRSA BAA-1707
  MIC: 50 µM (≈ 20.2 µg/mL)
MRSA BAA-44
  MIC: 75 µM (≈ 30.3 µg/mL)

## Cc1nc2c(I)cc(I)c(O)c2nc1C [Compound 28]
[2]; [12]
  MIC: 1.56 to 3.13 µM (≈ 0.665 to 1.33 µg/mL)
[2]; [13]
  MIC: 2.35 µM (≈ 1 µg/mL)
[4]; [15]
  MIC: 6.25 µM (≈ 2.66 µg/mL)
[4]; [16]
  MIC: 6.25 µM (≈ 2.66 µg/mL)
[10]; Mycobacterium tuberculosis
  MIC: > 50 µM
[10]
  MIC: >50 µM
In vitro
  IC50 at 24 h: > 100 µM
Human red blood cells; human, 1 h, pH 7.2
  % Hemolysis (200 μM): 1.2%
  % Hemolysis at 200 μM: 1.2%
[5]; Table 4, read-out: MBC, MRSA-2
  MBC: 93.8 µM (≈ 40 µg/mL)
[5]; [17]
  MBC: 93.8 µM (≈ 40 µg/mL)
[6]
  MBC: 23.5 µM (≈ 10 µg/mL)
A. baumannii 19606; [18]
  MIC: > 100 µM
P. aeruginosa (PAO1); [19]
  MIC: > 100 µM
K. pneumoniae 13883; [20]
  MIC: > 100 µM
E. coli UAEC-1; [21]
  MIC: > 100 µM
